Patent US7285395B2, “Stearoyl-CoA desaturase 4 gene” (Wisconsin Alumni Research Foundation, priority 2004, dated 2007)

Key:
Type in all cases: in vivo, mouse
Details in all cases: heart, 129SV mice, chow diet containing 0.025% T0901317 fed for 2 days
[1] = test system: mSCD2; assay: quantitative RT-PCR of mSCD2 mRNA in hearts of mice fed test diets
Protocol: (§1) The mice were fed the following diets. A, a high carbohydrate fat-free diet (CHO-FF). B, high carbohydrate fat-free diet supplemented with fish oil (CHO-FO) that was fed for 4 days. C, chow diet supplemented with the LXRα agonist T0901317 (LXR) and fed for 2 days. Total RNA from hearts of mice from each group (n=4) was subjected to quantitative RT-PCR using specific primers as described in the example below. The fold change was calculated after correction for the levels of cyclophilin used as a standard. Each value represents the mean±S.E. (n=4). *, p<0.01; **, p<0.001 versus wild type (Student's t test).
(§2) Animals and Diets—Male C57BL6J and ob/ob mice were obtained from the Jackson Laboratory (Bar Harbor, Me.). 129S6/SvEv mice were purchased from Taconic (Germantown, N.Y.). […]
(§3) Cloning and Expression of the Mouse SCD4 cDNA—A BLAST search of the mouse genomic data base identified a gene with exon sequences highly homologous to the amino acid sequence of mouse SCD1, 2, and 3 (GenBank™ accession numbers AH—002082, M26270, and AF272037, respectively). Using the genomic sequence, a candidate open reading frame of the putative SCD4 was cloned by synthesizing a forward and a reverse primer. […]

[2] = test system: mSCD1; assay: quantitative RT-PCR of mSCD1 mRNA in hearts of mice fed test diets
Protocol: as §1, §2, §3

[3] = test system: mSCD4; assay: quantitative RT-PCR of mSCD4 mRNA in hearts of mice fed test diets
Protocol: as §1, §2, §3

Compound: O=S(=O)(c1ccccc1)N(CC(F)(F)F)c1ccc(C(O)(C(F)(F)F)C(F)(F)F)cc1 [T0901317]
- induction of mouse SCD2 mRNA [1]: 12 fold
- induction of mouse SCD1 mRNA [2]: 18 fold
- induction of mouse SCD4 mRNA [3]: 60 fold
